The results in this text go back to paper PMC4149780, “Structural basis for polyspecificity in the POT family of proton-coupled oligopeptide transporters” (EMBO Reports, 2014).

Holding throughout (assay type): biochemical, Streptococcus thermophilus
One assay concerns PepTSt (WT). Description: proton-driven [3H]-di-Ala uptake competition in reconstituted liposomes, WT transporter. Here is the method:
(§1) PepTSt was reconstituted into Escherichia coli total lipids with egg PC liposomes and assayed using a proton-driven system as previously described.
Figure S2. Substrate specificity profile for PepTSt.
‘% residual transport ’ refers to competition for 3H-Ala-Ala uptake in the presence of 10 mM of the cold peptides indicated on the X-axis as a percentage of ‘no competitor’ peptide in a reconstituted proton driven uptake assay.Error bars indicate the standard deviation from three independent

A further assay deals with PepTSt Tyr29Phe (Y29F). Description: proton-driven [3H]-di-Ala uptake competition in reconstituted liposomes, Y29F variant.
From the text: as §1

The test system of the next assay is PepTSt Asn156Ala (N156A). In words: proton-driven [3H]-di-Ala uptake competition in reconstituted liposomes, N156A variant.
From the text: as §1

A further assay has as its system PepTSt Trp427Phe (W427F). In words: proton-driven [3H]-di-Ala uptake competition in reconstituted liposomes, W427F variant.
From the text: as §1

In the case of L-Ala-L-Ala [Ala-Ala], the IC50 in the assay with PepTSt (WT) (WT PepTSt in liposomes, proton-driven uptake) was 37 µM; in the assay on PepTSt Tyr29Phe (Y29F) it was 40 µM; in the assay on PepTSt Asn156Ala (N156A), 86 µM; with PepTSt Trp427Phe (W427F) it was 35 µM.
As for tri-glycine, the “% residual transport (competition for 3H-Ala-Ala uptake), result in words” value with PepTSt (WT) (10 mM cold peptide, reconstituted proton driven uptake assay, WT PepTSt) is given as “not able to compete effectively”.

As a reminder, the IC50 is the concentration that inhibits the measured activity by half. The low end stands for inhibition by little substance, the high end for a need for much substance.
